Data reported in ChEMBL document CHEMBL1201862, “PubChem BioAssay data set” (2004).
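Interpolation was linear, between the two tested concentrations surrounding the appropriate level; five concentrations were tested over 48 hours in 96-well plates. At the GI50, growth is halved.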 Activity calls are given as the source filed them. No stated cut-off is given here; in the data, active = GI50 up to about 1.1 µM and inactive = higher.

Assays:
Assay in all cases: NCI-60 cell line screen, 48 h
786-0 = tested on: 786-0
A498 = tested on: A498
A549 = tested on: A549
ACHN = tested on: ACHN
CAKI-1 = tested on: CAKI-1
CCRF-CEM = tested on: CCRF-CEM
COLO 205 = tested on: COLO 205
DLD-1 = tested on: DLD-1
DMS-114 = tested on: DMS-114
DMS-273 = tested on: DMS-273
EKVX = tested on: EKVX
HCC 2998 = tested on: HCC 2998
HCT-116 = tested on: HCT-116
HCT-15 = tested on: HCT-15
HOP-18 = tested on: HOP-18
HOP-62 = tested on: HOP-62
HOP-92 = tested on: HOP-92
HT-29 = tested on: HT-29
IGROV-1 = tested on: IGROV-1
K562 = tested on: K562
KM-20L2 = tested on: KM-20L2
KM12 = tested on: KM12
LOX IMVI = tested on: LOX IMVI
LXFL 529 = tested on: LXFL 529
M14 = tested on: M14
M19-MEL = tested on: M19-MEL
MOLT-4 = tested on: MOLT-4
Malme-3M = tested on: Malme-3M
NCI-H226 = tested on: NCI-H226
NCI-H23 = tested on: NCI-H23
NCI-H460 = tested on: NCI-H460
NCI-H522 = tested on: NCI-H522
OVCAR-3 = tested on: OVCAR-3
OVCAR-4 = tested on: OVCAR-4
OVCAR-5 = tested on: OVCAR-5
OVCAR-8 = tested on: OVCAR-8
RPMI-8226 = tested on: RPMI-8226
RXF 393 = tested on: RXF 393
RXF 631 = tested on: RXF 631
SF-268 = tested on: SF-268
SF-295 = tested on: SF-295
SF-539 = tested on: SF-539
SK-MEL-28 = tested on: SK-MEL-28
SK-MEL-2 = tested on: SK-MEL-2
SK-MEL-5 = tested on: SK-MEL-5
SK-OV-3 = tested on: SK-OV-3
SN12C = tested on: SN12C
SNB-19 = tested on: SNB-19
SNB-75 = tested on: SNB-75
SNB-78 = tested on: SNB-78
SR = tested on: SR
SW-620 = tested on: SW-620
TK-10 = tested on: TK-10
U-251 = tested on: U-251
UACC-257 = tested on: UACC-257
UACC-62 = tested on: UACC-62
UO-31 = tested on: UO-31
HL-60 = tested on: HL-60

Cc1ccc(NC(=O)CCCC(=O)CC(=O)c2ccc(Br)cc2)cc1
GI50 (786-0): > 100 µM (inactive)
GI50 (A498): > 100 µM (inactive)
GI50 (A549): > 100 µM (inactive)
GI50 (ACHN): > 100 µM (inactive)
GI50 (CAKI-1): > 100 µM (inactive)
GI50 (CCRF-CEM): > 100 µM (inactive)
GI50 (COLO 205): > 100 µM (inactive)
GI50 (DLD-1): > 100 µM (inactive)
GI50 (DMS-114): > 100 µM (inactive)
GI50 (DMS-273): > 100 µM (inactive)
GI50 (EKVX): > 100 µM (inactive)
GI50 (HCC 2998): > 100 µM (inactive)
GI50 (HCT-116): > 100 µM (inactive)
GI50 (HCT-15): > 100 µM
GI50 (HOP-18): > 100 µM (inactive)
GI50 (HOP-62): > 100 µM (inactive)
GI50 (HOP-92): > 100 µM (inactive)
GI50 (HT-29): > 100 µM (inactive)
GI50 (IGROV-1): > 100 µM (inactive)
GI50 (K562): > 100 µM (inactive)
GI50 (KM-20L2): > 100 µM (inactive)
GI50 (KM12): > 100 µM (inactive)
GI50 (LOX IMVI): > 100 µM (inactive)
GI50 (LXFL 529): > 100 µM (inactive)
GI50 (M14): > 100 µM (inactive)
GI50 (M19-MEL): > 100 µM (inactive)
GI50 (MOLT-4): > 100 µM (inactive)
GI50 (Malme-3M): > 100 µM (inactive)
GI50 (NCI-H226): > 100 µM (inactive)
GI50 (NCI-H23): > 100 µM (inactive)
GI50 (NCI-H460): > 100 µM (inactive)
GI50 (NCI-H522): > 100 µM (inactive)
GI50 (OVCAR-3): > 100 µM (inactive)
GI50 (OVCAR-4): > 100 µM (inactive)
GI50 (OVCAR-5): > 100 µM (inactive)
GI50 (OVCAR-8): > 100 µM (inactive)
GI50 (RPMI-8226): > 100 µM (inactive)
GI50 (RXF 393): > 100 µM (inactive)
GI50 (RXF 631): > 100 µM (inactive)
GI50 (SF-268): > 100 µM (inactive)
GI50 (SF-295): > 100 µM (inactive)
GI50 (SF-539): > 100 µM (inactive)
GI50 (SK-MEL-28): > 100 µM (inactive)
GI50 (SK-MEL-2): > 100 µM (inactive)
GI50 (SK-MEL-5): > 100 µM (inactive)
GI50 (SK-OV-3): > 100 µM (inactive)
GI50 (SN12C): > 100 µM (inactive)
GI50 (SNB-19): > 100 µM (inactive)
GI50 (SNB-75): 34.4 µM (inactive)
GI50 (SNB-78): > 100 µM (inactive)
GI50 (SR): > 100 µM (inactive)
GI50 (SW-620): > 100 µM (inactive)
GI50 (TK-10): > 100 µM (inactive)
GI50 (U-251): > 100 µM (inactive)
GI50 (UACC-257): > 100 µM (inactive)
GI50 (UACC-62): > 100 µM (inactive)
GI50 (UO-31): > 100 µM (inactive)

C/C=C/C=C/C=C/C=C/C(=O)O
GI50 (786-0): > 100 µM (inactive)
GI50 (A498): > 100 µM (inactive)
GI50 (A549): > 100 µM (inactive)
GI50 (ACHN): > 100 µM (inactive)
GI50 (CAKI-1): > 100 µM (inactive)
GI50 (CCRF-CEM): > 100 µM (inactive)
GI50 (COLO 205): > 100 µM (inactive)
GI50 (DLD-1): > 100 µM (inactive)
GI50 (DMS-114): > 100 µM (inactive)
GI50 (DMS-273): > 100 µM (inactive)
GI50 (EKVX): > 100 µM (inactive)
GI50 (HCC 2998): > 100 µM (inactive)
GI50 (HCT-116): > 100 µM (inactive)
GI50 (HCT-15): > 100 µM
GI50 (HL-60): > 100 µM (inactive)
GI50 (HOP-18): > 100 µM (inactive)
GI50 (HOP-62): > 100 µM (inactive)
GI50 (HT-29): > 100 µM (inactive)
GI50 (IGROV-1): > 100 µM (inactive)
GI50 (K562): > 100 µM (inactive)
GI50 (KM-20L2): > 100 µM (inactive)
GI50 (KM12): > 100 µM (inactive)
GI50 (LOX IMVI): > 100 µM (inactive)
GI50 (LXFL 529): > 100 µM (inactive)
GI50 (M14): > 100 µM (inactive)
GI50 (MOLT-4): > 100 µM (inactive)
GI50 (Malme-3M): > 100 µM (inactive)
GI50 (NCI-H226): > 100 µM (inactive)
GI50 (NCI-H23): > 100 µM (inactive)
GI50 (NCI-H460): > 100 µM (inactive)
GI50 (NCI-H522): > 100 µM (inactive)
GI50 (OVCAR-3): > 100 µM (inactive)
GI50 (OVCAR-4): > 100 µM (inactive)
GI50 (OVCAR-5): > 100 µM (inactive)
GI50 (OVCAR-8): > 100 µM (inactive)
GI50 (RPMI-8226): > 100 µM (inactive)
GI50 (RXF 393): > 100 µM (inactive)
GI50 (RXF 631): > 100 µM (inactive)
GI50 (SF-268): > 100 µM (inactive)
GI50 (SF-295): > 100 µM (inactive)
GI50 (SF-539): > 100 µM (inactive)
GI50 (SK-MEL-28): > 100 µM (inactive)
GI50 (SK-MEL-2): > 100 µM (inactive)
GI50 (SK-MEL-5): > 100 µM (inactive)
GI50 (SK-OV-3): > 100 µM (inactive)
GI50 (SN12C): > 100 µM (inactive)
GI50 (SNB-19): > 100 µM (inactive)
GI50 (SNB-75): > 100 µM (inactive)
GI50 (SNB-78): > 100 µM (inactive)
GI50 (SR): > 100 µM (inactive)
GI50 (SW-620): > 100 µM (inactive)
GI50 (U-251): > 100 µM (inactive)
GI50 (UACC-257): > 100 µM (inactive)
GI50 (UACC-62): > 100 µM (inactive)
GI50 (UO-31): > 100 µM (inactive)

Cc1ccc(NC(=O)CC/C(CC(=O)c2ccc(F)cc2)=N\NC(=O)C(=O)NN)cc1C
GI50 (786-0): > 100 µM (inactive)
GI50 (A498): > 100 µM (inactive)
GI50 (A549): > 100 µM (inactive)
GI50 (ACHN): > 100 µM (inactive)
GI50 (CAKI-1): > 100 µM (inactive)
GI50 (CCRF-CEM): > 100 µM (inactive)
GI50 (COLO 205): > 100 µM (inactive)
GI50 (DLD-1): > 100 µM (inactive)
GI50 (DMS-114): > 100 µM (inactive)
GI50 (DMS-273): > 100 µM (inactive)
GI50 (EKVX): > 100 µM (inactive)
GI50 (HCC 2998): > 100 µM (inactive)
GI50 (HCT-116): > 100 µM (inactive)
GI50 (HCT-15): > 100 µM
GI50 (HL-60): 41.5 µM (inactive)
GI50 (HOP-18): > 100 µM (inactive)
GI50 (HOP-62): > 100 µM (inactive)
GI50 (HOP-92): > 100 µM (inactive)
GI50 (HT-29): > 100 µM (inactive)
GI50 (IGROV-1): > 100 µM (inactive)
GI50 (K562): > 100 µM (inactive)
GI50 (KM-20L2): > 100 µM (inactive)
GI50 (KM12): > 100 µM (inactive)
GI50 (LOX IMVI): > 100 µM (inactive)
GI50 (LXFL 529): > 100 µM (inactive)
GI50 (M14): > 100 µM (inactive)
GI50 (M19-MEL): > 100 µM (inactive)
GI50 (Malme-3M): > 100 µM (inactive)
GI50 (NCI-H226): > 100 µM (inactive)
GI50 (NCI-H23): > 100 µM (inactive)
GI50 (NCI-H460): > 100 µM (inactive)
GI50 (NCI-H522): > 100 µM (inactive)
GI50 (OVCAR-3): > 100 µM (inactive)
GI50 (OVCAR-4): > 100 µM (inactive)
GI50 (OVCAR-5): > 100 µM (inactive)
GI50 (OVCAR-8): > 100 µM (inactive)
GI50 (RXF 393): > 100 µM (inactive)
GI50 (RXF 631): > 100 µM (inactive)
GI50 (SF-268): > 100 µM (inactive)
GI50 (SF-295): > 100 µM (inactive)
GI50 (SF-539): > 100 µM (inactive)
GI50 (SK-MEL-28): > 100 µM (inactive)
GI50 (SK-MEL-2): > 100 µM (inactive)
GI50 (SK-MEL-5): > 100 µM (inactive)
GI50 (SK-OV-3): > 100 µM (inactive)
GI50 (SN12C): > 100 µM (inactive)
GI50 (SNB-19): > 100 µM (inactive)
GI50 (SNB-75): > 100 µM (inactive)
GI50 (SNB-78): > 100 µM (inactive)
GI50 (SW-620): > 100 µM (inactive)
GI50 (TK-10): > 100 µM (inactive)
GI50 (U-251): > 100 µM (inactive)
GI50 (UACC-257): > 100 µM (inactive)
GI50 (UACC-62): > 100 µM (inactive)
GI50 (UO-31): > 100 µM (inactive)
